Assay results reported in publication PMC10649961, “Novel Mitochondria-Targeted Amphiphilic Aminophosphonium Salts and Lipids Nanoparticles: Synthesis, Antitumor Activity and Toxicity” (Nanomaterials, 2023).
Where two headings read alike, the source gives them in different places.

Experiments:
[1] = tested on: Staphylococcus aureus ATCC 6538 P FDA 209P; test: Antimicrobial activity, serial microdilutions, Sa; assay type: cell-based; settings: Staphylococcus aureus; for MIC: read-out: Minimum Inhibitory Concentration (MIC); for MBC: read-out: Minimum bactericidal and fungicidal concentrations (MBC, MFC)
In short: (§1)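 Compounds were serially diluted in broth: Mueller-Hinton for the bacterial strains, Sabouraud for the yeast. Each determination was done in triplicate.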

[2] = tested on: Bacillus cereus ATCC 10702 NCTC 8035; test: Antimicrobial activity, serial microdilutions, Bc; assay type: cell-based; parameters: key to Minimum bactericidal and fungicidal concentrations (MBC, MFC): – means non-active; settings: for MIC: read-out: Minimum Inhibitory Concentration (MIC)
In short: (§2)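 Broth microdilution, triplicate; media: Mueller-Hinton (bacteria), Sabouraud (C. albicans). MRSA-1 = patient isolate, chronic tonsillitis.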

[3] = tested on: Enterococcus faecalis ATCC 29212; test: Antimicrobial activity, serial microdilutions, Ef; assay type: cell-based; parameters: key to Minimum Inhibitory Concentration (MIC) / Minimum bactericidal and fungicidal concentrations (MBC, MFC): – means non-active; settings: for MIC: ATCC29212, read-out: Minimum Inhibitory Concentration (MIC)
In short: as §1

MRSA-1 = test: Antimicrobial activity, serial microdilutions, MRSA-1; assay type: cell-based, S. aureus; settings: Staphylococcus aureus; for MIC: read-out: Minimum Inhibitory Concentration (MIC); for MBC: read-out: Minimum bactericidal and fungicidal concentrations (MBC, MFC)
In short: as §2

MRSA-2 = test: Antimicrobial activity, serial microdilutions, MRSA-2; assay type: cell-based, S. aureus; settings: Staphylococcus aureus; for MIC: read-out: Minimum Inhibitory Concentration (MIC); for MBC: read-out: Minimum bactericidal and fungicidal concentrations (MBC, MFC)
In short: as §1

[4] = tested on: Escherichia coli ATCC 25922; test: Antimicrobial activity, serial microdilutions, Ec; assay type: cell-based; parameters: key to Minimum Inhibitory Concentration (MIC) / Minimum bactericidal and fungicidal concentrations (MBC, MFC): – means non-active
In short: as §2

[5] = tested on: Pseudomonas aeruginosa ATCC 9027; test: Antimicrobial activity, serial microdilutions, Pa; assay type: cell-based; parameters: key to Minimum Inhibitory Concentration (MIC) / Minimum bactericidal and fungicidal concentrations (MBC, MFC): – means non-active
In short: as §2

[6] = tested on: Candida albicans ATCC 10231; test: Antimicrobial activity, serial microdilutions, Ca; assay type: cell-based; parameters: key to Minimum Inhibitory Concentration (MIC) / Minimum bactericidal and fungicidal concentrations (MBC, MFC): – means non-active
In short: as §2

M-HeLa [7] = settings: calculated relative to the cell line Chang liver (b)
MCF-7 [8] = settings: calculated relative to the cell line Chang liver (b)
HuTu 80 [9] = settings: calculated relative to the cell line Chang liver (b)
PANC-1 [10] = settings: calculated relative to the cell line Chang liver (b)
A549 [11] = settings: reference normal cell line not marked at the place (ns cells)
T98G [12] = tested on: T98G
Hep G2 [13] = settings: calculated relative to the cell line Chang liver (b)
SK-OV-3 [14] = tested on: SK-OV-3
DU-145 [15] = tested on: DU-145
M-HeLa [16] = test: cells; settings: Homo sapiens, 48 h, read-out: Cytotoxic Effects (IC50)
MCF-7 [17] = test: cells; settings: Homo sapiens, MCF7, 48 h, read-out: Cytotoxic Effects (IC50)
HuTu 80 [18] = test: cells; settings: Homo sapiens, HuTu80, 48 h, read-out: Cytotoxic Effects (IC50)
PANC-1 [19] = test: cells; settings: Homo sapiens, PANC-1, 48 h, read-out: Cytotoxic Effects (IC50)
A549 [20] = test: cells; settings: Homo sapiens, A549, 48 h, read-out: Cytotoxic Effects (IC50)
T98G [21] = test: cells; settings: Homo sapiens, 48 h, read-out: Cytotoxic Effects (IC50)
Hep G2 [22] = test: cells; settings: Homo sapiens, HepG2, 48 h, read-out: Cytotoxic Effects (IC50)
SK-OV-3 [23] = test: cells; settings: Homo sapiens, SK-OV-3, 48 h, read-out: Cytotoxic Effects (IC50)
DU-145 [24] = test: cells; settings: Homo sapiens, DU-145, 48 h, read-out: Cytotoxic Effects (IC50), DU-145, MTT assay, 48 h
[25] = reference normal cell line not marked at the place (ns cells)
[26] = calculated relative to the cell line Chang liver (b)

Row | Compound | MIC [1] [µM] | MBC [1] [µM] | MIC ([2]; Bacillus cereus, Bc) [µM] | MIC ([3]; Enterococcus faecalis) [µM] | MIC (MRSA-1) [µM] | MBC (MRSA-1) [µM] | MIC (MRSA-2) [µM] | MBC (MRSA-2) [µM] | selectivity index (SI) (M-HeLa [7]) | selectivity index (SI) (MCF-7 [8]) | selectivity index (SI) (HuTu 80 [9]) | selectivity index (SI) (PANC-1 [10]) | selectivity index (SI) (A549 [11]) | selectivity index (SI) (Hep G2 [13]) | IC50 (M-HeLa [16]) [µM] | IC50 (MCF-7 [17]) [µM] | IC50 (HuTu 80 [18]) [µM] | IC50 (PANC-1 [19]) [µM] | IC50 (A549 [20]) [µM] | IC50 (T98G [21]) [µM] | other results
1 | CCCCCCCC[P+](N(CC)CC)(N(CC)CC)N(CC)CC [4b, Tris(diethylamino)(octyl)phosphonium iodide] | 15.6 ± 1.3 | 31.3 ± 2.3 | 7.8 ± 0.7 | 250 ± 19 | 15.6 ± 0.3 | 500 ± 47 | 15.6 ± 1.2 | 125 ± 9 | 2.2 | 1.4 | 1.3 | 1.7 | ns (ns—no selectivity) | 1.4 | 1.8 ± 0.1 | 2.9 ± 0.2 | 3.2 ± 0.2 | 2.3 ± 0.1 | 15.4 ± 1.2 | 5.9 ± 0.4 | Minimum bactericidal and fungicidal concentrations (MBC, MFC) ([2]; Bc): –; Minimum bactericidal and fungicidal concentrations (MBC, MFC) [3]: –; Minimum Inhibitory Concentration (MIC) [4]: –; Minimum bactericidal and fungicidal concentrations (MBC, MFC) [4]: –; Minimum Inhibitory Concentration (MIC) [5]: –; Minimum bactericidal and fungicidal concentrations (MBC, MFC) [5]: –; Minimum Inhibitory Concentration (MIC) ([6]; Ca): –; Minimum bactericidal and fungicidal concentrations (MBC, MFC) ([6]; Ca): –; selectivity index (SI) (PC3; [25]): ns (ns—no selectivity); selectivity index (SI) (T98G [12]; [25]): ns (ns—no selectivity); selectivity index (SI) (SK-OV-3 [14]; [25]): ns (ns—no selectivity); selectivity index (SI) (DU-145 [15]; [25]): ns (ns—no selectivity); IC50 (Hep G2 [22]): 2.9 ± 0.2 µM; IC50 (SK-OV-3 [23]): 26.3 ± 1.8 µM; IC50 (DU-145 [24]): 4.2 ± 0.3 µM
2 | CCCCCCCCCC[P+](N(CC)CC)(N(CC)CC)N(CC)CC [4d, Decyltris(diethylamino)phosphonium iodide] | 1.9 ± 0.1 | 31.3 ± 2.5 | 0.9 ± 0.07 | 15.6 ± 1.3 | 0.9 ± 0.07 | 62.5 ± 5.4 | 1.9 ± 0.1 | 250 ± 18 | 7.1 | 5.7 | 4.3 | 7.5 | ns (ns—no selectivity) | 5.2 | 1.7 ± 0.1 | 2.1 ± 0.2 | 2.8 ± 0.2 | 1.6 ± 0.1 | 18.4 ± 1.3 | 1.8 ± 0.2 | MBC ([2]; Bacillus cereus, read-out: Minimum bactericidal and fungicidal concentrations (MBC, MFC)): 250 ± 22 µM; MBC ([3]; Enterococcus faecalis, ATCC29212, read-out: Minimum bactericidal and fungicidal concentrations (MBC, MFC)): > 500 µM; MIC ([4]; Escherichia coli, ATCC25922, read-out: Minimum Inhibitory Concentration (MIC)): 125 ± 9 µM; MBC ([4]; Escherichia coli, ATCC25922, read-out: Minimum bactericidal and fungicidal concentrations (MBC, MFC)): 250 ± 19 µM; MIC ([5]; Pseudomonas aeruginosa, ATCC9027, read-out: Minimum Inhibitory Concentration (MIC)): 500 ± 47 µM; MBC ([5]; Pseudomonas aeruginosa, ATCC9027, read-out: Minimum bactericidal and fungicidal concentrations (MBC, MFC)): 500 ± 48 µM; MIC ([6]; Candida albicans, ATCC10231, read-out: Minimum Inhibitory Concentration (MIC)): 125 ± 11 µM; MBC ([6]; Candida albicans, ATCC10231, read-out: Minimum bactericidal and fungicidal concentrations (MBC, MFC)): 250 ± 18 µM; selectivity index (SI) (PC3; [26]): 1.6; selectivity index (SI) (T98G [12]; [26]): 6.7; selectivity index (SI) (SK-OV-3 [14]; [26]): 1.2; selectivity index (SI) (DU-145 [15]; [26]): 10; IC50 (Hep G2 [22]): 2.3 ± 0.1 µM; IC50 (SK-OV-3 [23]): 10 ± 0.9 µM; IC50 (DU-145 [24]): 1.2 ± 0.1 µM
